Test results: article PMC4673829 (Nature Communications, 2015)
Like-named read-outs stand apart in the source and are kept apart here.

Legend:
BPTF PHD zinc finger = biological target: T1, BPTF PHD zinc finger (Homo sapiens, UniProt Q12830); assay: ITC binding to BPTF PHD zinc finger; details: ITC (Auto-iTC200), one set of sites; 350–600 μM 10-mer peptide into 25–40 μM protein (eluted in 50 mM Tris, 20 mM NaCl, pH 7.5); 5–7 independent experiments; stoichiometry n=0.95–1.05
T1 construct: the PHD zinc fingers of JARID1A, BPTF, TAF3 and the tudor domains of the Royal family of SGF29 and JMJD2A; made in house; host or cells: Escherichia coli Rosetta BL21 DE3 pLysS
Source text: (§1) We use isothermal titration calorimetry (ITC) to obtain full thermodynamic descriptions for binding of H3K4me3, H3C4me3 and H3G4 peptides to five representative reader proteins that specifically recognize H3K4me3 (the PHD zinc fingers of JARID1A, BPTF, TAF3 and the tudor domains of the Royal family of SGF29 and JMJD2A) (Table 1 and Fig. 1b,c)[19][20][21][22][23]. The five reader pockets are different in the aromatic cage composition and architecture, which allows us to examine the effect of individual constitution of the aromatic cage on binding differences.
(§2) Reader proteins were prepared and purified following the previously reported procedure. Briefly, the reader domains of BPTF, JMJD2A, JARID1A, TAF3 and SGF29 were expressed in Escherichia coli Rosetta BL21 DE3 pLysS hosts, using Terrific Broth medium. The bacteria were cultured to OD600 ∼0.6 at 37 °C after which they were induced with 0.5 mM isopropyl-b-D-thiogalactoside overnight at 16 °C. […]
(§3) Concentrations of histone peptides were measured by ultraviolet spectroscopy at 205 nm, following the previously reported method. All histone peptides were titrated to the same batch of reader proteins. […] Heats of dilution for histone peptides were determined in control experiments, and were subtracted from the titration binding data before curve fitting. […] For each reader–histone system, 5–7 independent ITC experiments were carried out. […]

JARID1A PHD3 domain = biological target: T2, JARID1A PHD3 domain (Homo sapiens, UniProt P29375); assay: ITC binding to JARID1A PHD3 domain
T2 construct: made in house; host or cells: Escherichia coli Rosetta BL21 DE3 pLysS
T2 sequence (P29375 1607-1661 limits assumed): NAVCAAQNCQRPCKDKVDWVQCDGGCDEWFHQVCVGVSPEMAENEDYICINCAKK
Source text: as §1
(§4) Reader proteins were prepared and purified following the previously reported procedure. Briefly, the reader domains of BPTF, JMJD2A, JARID1A, TAF3 and SGF29 were expressed in Escherichia coli Rosetta BL21 DE3 pLysS hosts, using Terrific Broth medium. The bacteria were cultured to OD600 ∼0.6 at 37 °C after which they were induced with 0.5 mM isopropyl-b-D-thiogalactoside overnight at 16 °C. Proteins were purified using Ni-NTA beads for 6xHis-tagged proteins or glutathione sepharose beads for GST tagged proteins, respectively. After purification, the 6xHis tag was cleaved from JMJD2A and SGF29 using TEV-protease and the GST tag was cleaved from TAF3 using thrombin. Protein were purified by size-exclusion chromatography using a Superdex 75 column (GE Healthcare). SGF29 was eluted in 25 mM Tris, 50 mM NaCl, 1 mM dithiothreitol at pH 7.5; JMJD2A and TAF3 were eluted in 50 mM Tris at pH 7.5; BPTF and JARID1A were eluted in 50 mM Tris, 20 mM NaCl at pH 7.5. All proteins were made filter sterile and stored at 4 °C until further use.
as §3

JMJD2A tudor domain = biological target: T3, JMJD2A tudor domain (Homo sapiens, UniProt O75164); assay: ITC binding to JMJD2A tudor domain; details: 5–7 independent experiments
T3 construct: the PHD zinc fingers of JARID1A, BPTF, TAF3 and the tudor domains of the Royal family of SGF29 and JMJD2A; 6xHis (cleaved yes); made in house; host or cells: Escherichia coli Rosetta BL21 DE3 pLysS
T3 sequence (O75164 897-1011 limits assumed): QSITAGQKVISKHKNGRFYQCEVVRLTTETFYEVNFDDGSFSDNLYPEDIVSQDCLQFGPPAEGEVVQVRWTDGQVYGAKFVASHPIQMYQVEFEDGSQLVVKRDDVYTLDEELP
Source text: as §1, §2, §3

[1] = biological target: T4, SGF29 tandem tudor domain (Homo sapiens, UniProt Q96ES7); assay: ITC binding to SGF29 tandem tudor domain; details: ITC (Auto-iTC200), one set of sites; 350–600 μM 10-mer peptide into 25–40 μM protein (eluted in 25 mM Tris, 50 mM NaCl, 1 mM dithiothreitol, pH 7.5); 5–7 independent experiments; stoichiometry n=0.95–1.05
T4 construct: 6xHis (cleaved yes); made in house; host or cells: Escherichia coli Rosetta BL21 DE3 pLysS
T4 sequence (Q96ES7 115-293): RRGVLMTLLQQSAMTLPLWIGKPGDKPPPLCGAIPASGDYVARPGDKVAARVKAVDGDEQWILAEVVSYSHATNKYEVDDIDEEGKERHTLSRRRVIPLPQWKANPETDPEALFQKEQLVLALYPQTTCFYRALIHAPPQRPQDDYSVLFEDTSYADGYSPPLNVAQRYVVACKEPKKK
Source text: as §1, §2, §3

TAF3 PHD domain = biological target: T5, TAF3 PHD domain (Homo sapiens, UniProt Q5VWG9); assay: ITC binding to TAF3 PHD domain; details: 5–7 independent experiments
T5 sequence (Q5VWG9 857-924): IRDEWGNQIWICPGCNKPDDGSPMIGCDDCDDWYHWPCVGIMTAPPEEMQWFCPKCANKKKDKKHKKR
Source text: as §1, §4, §3

[2] = ITC (Auto-iTC200), one set of sites, 350–600 μM 10-mer peptide into 25–40 μM protein (eluted in 50 mM Tris, 20 mM NaCl, pH 7.5), 5–7 independent experiments, stoichiometry n=0.95–1.05, read-out: Kd
[3] = ITC (Auto-iTC200), one set of sites, 350–600 μM 10-mer peptide into 25–40 μM protein (eluted in 50 mM Tris, pH 7.5), stoichiometry n=0.95–1.05, read-out: Kd

C[C@H](N)C(=O)N[C@@H](CCCNC(=N)N)C(=O)N[C@H](C(=O)N[C@@H](CCCCC(C)(C)C)C(=O)N[C@@H](CCC(N)=O)C(=O)N[C@H](C(=O)N[C@@H](C)C(=O)N[C@@H](CCCNC(=N)N)C(=O)N[C@@H](CCCCN)C(=O)N[C@@H](CO)C(=O)O)[C@@H](C)O)[C@@H](C)O [H3C4me3]
Kd (BPTF PHD zinc finger): 760 nM
Kd (JARID1A PHD3 domain; [2]): 340 nM
Kd (JMJD2A tudor domain; ITC, 3 mM H3C4me3 into 200 μM JMJD2A): 16000 nM
Kd [1]: 1400 nM
Kd (TAF3 PHD domain; [3]): 790 nM

C[C@H](N)C(=O)N[C@@H](CCCNC(=N)N)C(=O)N[C@H](C(=O)NCC(=O)N[C@@H](CCC(N)=O)C(=O)N[C@H](C(=O)N[C@@H](C)C(=O)N[C@@H](CCCNC(=N)N)C(=O)N[C@@H](CCCCN)C(=O)N[C@@H](CO)C(=O)O)[C@@H](C)O)[C@@H](C)O [H3G4]
Kd (JARID1A PHD3 domain): 88000 nM
Kd (TAF3 PHD domain; ITC, 3 mM H3G4 into 200 μM TAF3): 36000 nM

C[C@H](N)C(=O)N[C@@H](CCCNC(=N)N)C(=O)N[C@H](C(=O)N[C@@H](CCCC[N+](C)(C)C)C(=O)N[C@@H](CCC(N)=O)C(=O)N[C@H](C(=O)N[C@@H](C)C(=O)N[C@@H](CCCNC(=N)N)C(=O)N[C@@H](CCCCN)C(=O)N[C@@H](CO)C(=O)O)[C@@H](C)O)[C@@H](C)O [H3K4me3]
Kd (BPTF PHD zinc finger): 490 nM
Kd (JARID1A PHD3 domain; [2]): 94 nM
Kd (JMJD2A tudor domain; ITC (Auto-iTC200), one set of sites, 350–600 μM 10-mer peptide into 25–40 μM protein (eluted in 50 mM Tris, pH 7.5), stoichiometry n=0.95–1.05): 940 nM
Kd [1]: 1700 nM
Kd (TAF3 PHD domain; [3]): 24 nM
